Experiments:
HL-60 (TB) = assay: NCI in vitro cancer screen, Leukemia; assay type: cell-based, human; details: HL-60(TB), Leukemia
MOLT-4 = assay: NCI in vitro cancer screen, Leukemia; assay type: cell-based, human; details: MOLT-4, Leukemia
RPMI-8226 = assay: NCI in vitro cancer screen, Leukemia; assay type: cell-based, human; details: RPMI-8226, Leukemia
HOP-62 = assay: NCI in vitro cancer screen, Non-Small Cell Lung Cancer; assay type: cell-based, human; details: HOP-62, Non-Small Cell Lung Cancer
HOP-92 = assay: as above; assay type: cell-based, human; details: HOP-92, Non-Small Cell Lung Cancer
NCI-H23 = assay: as above; assay type: cell-based, human; details: NCI-H23, Non-Small Cell Lung Cancer
NCI-H460 = assay: as above; assay type: cell-based, human; details: NCI-H460, Non-Small Cell Lung Cancer
COLO 205 = assay: NCI in vitro cancer screen, Colon Cancer; assay type: cell-based, human; details: COLO 205, Colon Cancer
HCT-15 = assay: NCI in vitro cancer screen, Colon Cancer; assay type: cell-based, human; details: HCT-15, Colon Cancer
HT29 = assay: NCI in vitro cancer screen, Colon Cancer; assay type: cell-based, human; details: HT29, Colon Cancer
KM12 = assay: NCI in vitro cancer screen, Colon Cancer; assay type: cell-based, human; details: KM12, Colon Cancer
SF-268 = assay: NCI in vitro cancer screen, CNS Cancer; assay type: cell-based, human; details: SF-268, CNS Cancer
SF-539 = assay: NCI in vitro cancer screen, CNS Cancer; assay type: cell-based; details: SF-539, CNS Cancer
U251 = assay: NCI in vitro cancer screen, CNS Cancer; assay type: cell-based, human; details: U251, CNS Cancer
LOX IMVI = assay: NCI in vitro cancer screen, Melanoma; assay type: cell-based, human; details: Melanoma
MALME-3M = assay: NCI in vitro cancer screen, Melanoma; assay type: cell-based, human; details: MALME-3M, Melanoma
SK-MEL-2 = assay: NCI in vitro cancer screen, Melanoma; assay type: cell-based, human; details: SK-MEL-2, Melanoma
UACC-62 = assay: NCI in vitro cancer screen, Melanoma; assay type: cell-based, human; details: UACC-62, Melanoma
OVCAR-4 = assay: NCI in vitro cancer screen, Ovarian Cancer; assay type: cell-based, human; details: OVCAR-4, Ovarian Cancer
OVCAR-5 = assay: NCI in vitro cancer screen, Ovarian Cancer; assay type: cell-based, human; details: OVCAR-5, Ovarian Cancer
ADR-RES (NCI/ADR-RES) = assay: NCI in vitro cancer screen, Ovarian Cancer; assay type: cell-based, human; details: NCI/ADR-RES, Ovarian Cancer
A498 = assay: NCI in vitro cancer screen, Renal Cancer; assay type: cell-based, human; details: A498, Renal Cancer
CAKI-1 = assay: NCI in vitro cancer screen, Renal Cancer; assay type: cell-based, human; details: CAKI-1, Renal Cancer
SN12C = assay: NCI in vitro cancer screen, Renal Cancer; assay type: cell-based, human; details: Renal Cancer
TK-10 = assay: NCI in vitro cancer screen, Renal Cancer; assay type: cell-based, human; details: TK-10, Renal Cancer
UO-31 = assay: NCI in vitro cancer screen, Renal Cancer; assay type: cell-based, human; details: UO-31, Renal Cancer
PC-3 = assay: NCI in vitro cancer screen, Prostate Cancer; assay type: cell-based, human; details: PC-3, Prostate Cancer
T-47D = assay: NCI in vitro cancer screen, Breast Cancer; assay type: cell-based, human; details: Breast Cancer
human tumor cell lines = assay: NCI in vitro cancer screen, whole panel (summary statements); assay type: cell-based; details: result in words
[1] = Homo sapiens, read-out: LC50 (the source's name)

CC(C)=CCOc1cc(O)cc(/C=C/c2ccc(O)c(O)c2)c1CC=C(C)C [USYDS14, (E)-2-(3-methyl-2-buten-1-yl)-3-(3-methyl-2-butenyloxy)-3′,4′,5-trihydroxystilbene]
TGI (HL-60 (TB)): 16.3 µM
GI50 (HL-60 (TB); Homo sapiens): 4.06 µM
CC50 (HL-60 (TB); [1]): > 100 µM
GI50 (MOLT-4; Homo sapiens): 4.03 µM
CC50 (MOLT-4; [1]): > 100 µM
TGI (MOLT-4): 21 µM
GI50 (RPMI-8226; Homo sapiens): 4.07 µM
CC50 (RPMI-8226; [1]): > 100 µM
TGI (RPMI-8226): 24.5 µM
TGI (HOP-62): 3.77 µM
GI50 (HOP-62; Homo sapiens): 1.43 µM
CC50 (HOP-62; [1]): 9.98 µM
TGI (HOP-92): 7.58 µM
GI50 (HOP-92; Homo sapiens): 1.49 µM
CC50 (HOP-92; [1]): 32.9 µM
GI50 (NCI-H23; Homo sapiens): 2.92 µM
LC50 (NCI-H23; Homo sapiens): 57.6 µM
TGI (NCI-H23): 17.3 µM
GI50 (NCI-H460; Homo sapiens): 3.87 µM
CC50 (NCI-H460; [1]): 51.2 µM
TGI (NCI-H460): 14.9 µM
TGI (COLO 205): 28.5 µM
GI50 (COLO 205; Homo sapiens): 14.6 µM
CC50 (COLO 205; [1]): 55.7 µM
TGI (HCT-15): 10.4 µM
GI50 (HCT-15; Homo sapiens): 2.06 µM
CC50 (HCT-15; [1]): 43.3 µM
TGI (HT29): 29.1 µM
GI50 (HT29; Homo sapiens, HT-29): 14 µM
CC50 (HT29; Homo sapiens, HT-29, read-out: LC50 (the source's name)): 60.9 µM
GI50 (KM12; Homo sapiens): 3.74 µM
CC50 (KM12; [1]): 57.4 µM
TGI (KM12): 14.4 µM
GI50 (SF-268; Homo sapiens): 4.65 µM
CC50 (SF-268; [1]): 48.5 µM
TGI (SF-268): 17.8 µM
GI50 (SF-539; Homo sapiens): 2.96 µM
CC50 (SF-539; [1]): 37.8 µM
TGI (SF-539): 10.5 µM
GI50 (U251; Homo sapiens, U-251): 3.09 µM
CC50 (U251; Homo sapiens, U-251, read-out: LC50 (the source's name)): 39.4 µM
TGI (U251): 12.7 µM
GI50 (LOX IMVI; Homo sapiens): 1.36 µM
CC50 (LOX IMVI; [1]): 8.35 µM
TGI (LOX IMVI): 3.37 µM
GI50 (MALME-3M; Homo sapiens): 3.14 µM
CC50 (MALME-3M; [1]): 54.8 µM
TGI (MALME-3M): 21.8 µM
GI50 (SK-MEL-2; Homo sapiens): 3.72 µM
LC50 (SK-MEL-2; Homo sapiens): 41.2 µM
TGI (SK-MEL-2): 12.5 µM
GI50 (UACC-62; Homo sapiens): 2.61 µM
CC50 (UACC-62; [1]): 39.1 µM
TGI (UACC-62): 13.2 µM
GI50 (OVCAR-4; Homo sapiens): 2.98 µM
CC50 (OVCAR-4; [1]): 38.6 µM
TGI (OVCAR-4): 13.6 µM
GI50 (OVCAR-5; Homo sapiens): 12.4 µM
CC50 (OVCAR-5; [1]): 53.6 µM
TGI (OVCAR-5): 25.8 µM
GI50 (ADR-RES (NCI/ADR-RES); Homo sapiens): 0.78 µM
CC50 (ADR-RES (NCI/ADR-RES); [1]): 49.3 µM
TGI (ADR-RES (NCI/ADR-RES)): 11.4 µM
TGI (A498): 26.6 µM
GI50 (A498; Homo sapiens): 13 µM
CC50 (A498; [1]): 54.6 µM
TGI (CAKI-1): 17.5 µM
GI50 (CAKI-1; Homo sapiens): 3.59 µM
CC50 (CAKI-1; [1]): 45.4 µM
GI50 (SN12C; Homo sapiens): 3.61 µM
CC50 (SN12C; [1]): 42 µM
TGI (SN12C): 15.1 µM
GI50 (TK-10; Homo sapiens): 3.79 µM
LC50 (TK-10; Homo sapiens): 35.4 µM
TGI (TK-10): 12.1 µM
GI50 (UO-31; Homo sapiens): 3.71 µM
CC50 (UO-31; [1]): 46.3 µM
TGI (UO-31): 17.9 µM
GI50 (PC-3; Homo sapiens): 6.65 µM
CC50 (PC-3; [1]): 55 µM
TGI (PC-3): 21.6 µM
TGI (T-47D): 7.84 µM
GI50 (T-47D; Homo sapiens, T47D): 2.71 µM
CC50 (T-47D; Homo sapiens, T47D, read-out: LC50 (the source's name)): 61.8 µM
inhibition of cancerous cell growth (human tumor cell lines): structure dependent inhibition of cancerous cell growth

— US10696615B2, “Prenylated hydroxystilbenes” (The University of Sydney, priority 2011, dated 2020)
